We go through two molecules from US20200384013A1, “COMPOSITION FOR IMPROVEMENT OF SYMPTOMS OF SPINAL CORD INJURY” (MiZ Company Limited, priority 2019, published 2020).

Structures are written as SMILES.

For data set [1] the following is noted: compared with H2; stated as known; cited from earlier work.
For data set [2] the following is noted: normal temperature and normal pressure; also printed as 1.6 mg/L; cited from earlier work.
Data set [3] relates to injured nerve cells of the spinal cord / spinal cord-injured animal model. The following applies: high-concentration hydrogen of, for example, 50% or more; X. Chen 2018, C. Chen 2010; cited from earlier work.
Data set [4] has as its system symptoms of cervical spine/cervical cord injury. As to the method: They restored consciousness about a week after the accident.
Immediately before inhalation of hydrogen gas 6 years after the accident, they went to work in the afternoon 4 or 5 days a week, and stayed at home throughout a day when they felt ill. Further, they occasionally saw a doctor of psychiatry.
About 6 years after the accident, the patient underwent inhalation of hydrogen (hydrogen inhalation equipment: MHG-2000a Type, hydrogen concentration: 6 to 7.5%, hydrogen gas production rate: 140 mL/min, MiZ Company Limited (Kanagawa, Japan) over a period from Oct. 4, 2018 to May 12, 2019. Hydrogen was aspirated twice a day, once in the morning and once in the afternoon, for a total of 2 to 7.5 hours (an average of 3.3 hours a day), and as symptoms, pain, disordered sleep, decreased appetite, physical fatigue, mental fatigue, nervous fatigue, burning sensation on the back and foot spasticity were evaluated on Face Pain Scale (FPS; scale: 0 to 5) for about 7 months.
The FAS scales in FIGS. 1 to 5 indicate how the state changed after inhalation as compared to the state before inhalation. […] In FIGS. 1 to 5, the number of scores (e.g. 0 to 3) was counted for each of the periods, and the ratio (%) of the scores in each item was calculated. In the diagrams, the numbers shown outside the table represent the total numbers of respective scores.
Further, on May 13, 2019, the patient started inhalation of hydrogen using hydrogen gas inhalation equipment for professional use (hydrogen concentration: 6 to 7.5%, hydrogen gas production rate: 1,120 mL/min, MiZ Company Limited) instead of the hydrogen inhalation equipment MHG-2000a Type.
FIGS. 1 to 5 show the results of counting over a period from Oct. 4, 2018 to Feb. 14, 2019.
The patient recorded the FAS scores as well as their feeling before and after inhalation on paper record forms as will be described below.

In the case of `[2H][2H]` [D2, deuterium], in data set [1], the superoxide eliminating action result is reported as “higher than that of H2”.
`[HH]` [hydrogen gas, molecular hydrogen]: the “concentration of hydrogen dissolved in water” value in data set [2] was “about 1.6 ppm”. In addition, in data set [3], the “nerve cells of the spinal cord” value is recorded as “the nerve cells of the spinal cord were protected” and the oxidative stress result is on record as “oxidative stress was suppressed”. Further, the “FAS “4” and FAS “5” scores” value in data set [4] (Oct. 4, 2018 to Feb. 14, 2019, all items, hydrogen 6 to 7.5%, 140 mL/min) is “not recorded at all”. Further, in data set [4] (Oct. 4 to Oct. 31, 2018, inhalation, hydrogen 6 to 7.5%, 140 mL/min, average 3.3 hours a day, FAS 0 and 1 scores recorded), the “improvement in pain, sleep, appetite, physical fatigue, mental fatigue and nervous fatigue (Face Pain Scale scores)” value is listed as “good improvement tendency”. Further, the “improvement in sensation on the back and improvement in foot spasticity (Face Pain Scale scores)” value in data set [4] (Oct. 4 to Oct. 31, 2018, inhalation, hydrogen 6 to 7.5%, 140 mL/min, FAS 2 and 3 scores, occasionally 1) was “the improvement tendency was unknown or became worse”. Further, in data set [4] (from May 13, 2019, equipment for professional use, hydrogen 6 to 7.5%, 1,120 mL/min), the “Face Pain Scale scores, all items, before against after inhalation” value is “improvement occurred in all the items”. Also, in data set [4] (in and after November 2018, against inhalation time, hydrogen 6 to 7.5%, 140 mL/min), the “ratio of FAS “1” scores” value is “tended to increase as the inhalation time increased”. In addition, the “FAS score recorded in any of the items” value in data set [4] (on and after Dec. 1, 2018, continuous inhalation, hydrogen 6 to 7.5%, 140 mL/min, scale 0 to 5) turned out to be 3. Besides, the “body temperature and sweating reported by the patient” value in data set [4] (record May 13, 2019, equipment 1,120 mL/min, hydrogen 6 to 7.5%) is “the body temperature rises, and thus sweating cannot be stopped”. Moreover, the “patient's recorded feeling (spasticity, peripheral nerve, metabolism, flow of blood, induction of sleep)” value in data set [4] (record May 13, 2019, equipment 1,120 mL/min, hydrogen 6 to 7.5%, compared with before) was “a more potent effect is exhibited”.
